Assay results from paper PMC7969873 (Cell Reports, 2021).

Test system: SARS-CoV-2
Format: cell-based
Conditions: 250 nM, Vero E6 cells, 48 h

Row | Structure (SMILES) | antiviral activity (prevention of viral CPE) in primary screen
1 | N#C/C(=C/c1ccc(O)c(O)c1)C(=O)NCc1ccccc1 [AG-490] | antiviral activity
2 | O=C1NC(=O)/C(=C/c2ccc3c(c2)OC(F)(F)O3)S1 [AS-604850] | antiviral activity
3 | COc1ccc(-c2ccc3c(N4CCOC[C@@H]4C)nc(N4CCOC[C@@H]4C)nc3n2)cc1CO [AZD8055] | antiviral activity
4 | CO[C@H]1CC[C@H](N2C(=O)CNc3ncc(-c4ccc(C(C)(C)O)nc4)nc32)CC1 [CC-223, Onatasertib] | antiviral activity
5 | COc1cc2ncnc(Oc3cccc(NC(=O)Nc4cc(C(C)(C)C(F)(F)F)on4)c3)c2cc1OC [CEP-32496] | antiviral activity
6 | CS(=O)(=O)N1CCc2c(-c3cnc(N)nc3)nc(N3CCOCC3)nc21 [CH5132799] | antiviral activity
7 | Cn1cc(C2=C(c3cn(C4CCN(Cc5ccccn5)CC4)c4ccccc34)C(=O)NC2=O)c2ccccc21 [Enzastaurin] | antiviral activity
8 | CS(=O)(=O)N1CCN(Cc2cc3nc(-c4cccc5[nH]ncc45)nc(N4CCOCC4)c3s2)CC1 [GDC-0941, Pictilisib] | antiviral activity
9 | Cc1c(CN2CCN(C(=O)[C@H](C)O)CC2)sc2c(N3CCOCC3)nc(-c3cnc(N)nc3)nc12 [GDC-0980] | antiviral activity
10 | CCS(=O)(=O)Nc1ccc2c(c1)/C(=C(/Nc1ccc(CN3CCCCC3)cc1)c1ccccc1)C(=O)N2 [Hesperadin] | antiviral activity
11 | C[C@H](Nc1ncnc2nc[nH]c12)c1cc2cccc(Cl)c2c(=O)n1-c1ccccc1 [IPI-145] | antiviral activity
12 | Cn1cc(-c2ccc3nnc(C(F)(F)c4ccc5ncccc5c4)n3n2)cn1 [JNJ-38877605] | antiviral activity
13 | COc1cc2nccc(Oc3ccc(NC(=O)Nc4ccc(F)cc4F)c(F)c3)c2cc1OC [Ki8751] | antiviral activity
14 | Cc1ccc(C(=O)Nc2cccc(C(F)(F)F)c2)cc1Nc1nc(-c2cccnc2)nc2c1cnn2C [NVP-BHG712] | antiviral activity
15 | CSc1cccc(Nc2ncc3cc(-c4c(Cl)cccc4Cl)c(=O)n(C)c3n2)c1 [PD173955] | antiviral activity
16 | CC(=O)Nc1nc(C)c(-c2ccc(Cl)c(S(=O)(=O)NCCO)c2)s1 [PIK-93] | antiviral activity
17 | Nc1ncnc2c1c(-c1cnc3[nH]ccc3c1)nn2C1CCCC1 [PP121] | antiviral activity
18 | CCCCCCCCCCCCCCCCCCOP(=O)([O-])OC1CC[N+](C)(C)CC1 [Perifosine] | antiviral activity
19 | O=C1c2ccc(Nc3ccc(F)cc3F)cc2CCc2ccc(OC[C@H](O)CO)cc21 [Skepinone-L] | antiviral activity
20 | NC(=O)c1ccc(N(C(N)=O)c2c(F)cccc2F)nc1-c1ccc(F)cc1F [VX-702] | antiviral activity
21 | O=c1ncn2nc(Sc3ccc(F)cc3F)ccc2c1-c1c(Cl)cccc1Cl [VX-745] | antiviral activity
22 | CNC(=O)Nc1ccc(-c2nc(N3CC4CCC(C3)O4)c3cnn(C4CCC5(CC4)OCCO5)c3n2)cc1 [WYE-125132] | antiviral activity
23 | Nc1ccc(C(=O)Nc2cccc(-c3nc(N4CCOCC4)c4oc5ncccc5c4n3)c2)cn1 [YM201636] | antiviral activity
